From patent US8486962B2, “Antifungal agents” (F2G Ltd., priority 2005, dated 2013)
Values after ≈ are worked out from the molar mass of the structure shown. Where two headings read alike, the source gives them in different places.

What was measured:
Aspergillus flavus = test: MIC, YAG medium, Aspergillus flavus; assay type: cell-based; details: Aspergillus flavus, read-out: MIC A Flavus 01
In short: (§1)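 MICs in mg/L are lowest drug levels suppressing growth (OD 485 nm) relative to drug-free wells: Aspergillus in YAG at >70%, 24 hrs; Candida albicans in buffered RPMI at >80%, 24-48 hrs. Both incubated at 35° C across 50-0.05 mg/L doubling dilutions.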

[1] = tested on: Aspergillus fumigatus AF210; test: MIC, YAG medium, Aspergillus fumigatus AF210; assay type: cell-based; details: Aspergillus fumigatus
In short: as §1

[2] = tested on: Aspergillus fumigatus AF293; test: MIC, YAG medium, Aspergillus fumigatus AF293; assay type: cell-based; details: Aspergillus fumigatus
In short: as §1

Aspergillus terreus = test: MIC, YAG medium, Aspergillus terreus; assay type: cell-based; details: Aspergillus terreus, read-out: MIC A Terreus 4
In short: as §1

Aspergillus niger = test: MIC, YAG medium, Aspergillus niger; assay type: cell-based; details: Aspergillus niger, read-out: MIC A Niger 1
In short: as §1

A Terreus 49 = test: MIC, YAG medium, A Terreus 49; assay type: cell-based, Aspergillus terreus; details: Aspergillus terreus, read-out: MIC A Terreus 49
In short: as §1

[3] = AF210, YAG medium, read-out: MIC A Fum. 210
[4] = AF293, YAG medium, read-out: MIC A Fum. 293

Row | Compound | MIC (Aspergillus flavus; YAG medium) [µg/mL] | MIC [1, 3] [µg/mL] | MIC [2, 4] [µg/mL] | MIC (Aspergillus terreus; YAG medium) [µg/mL] | MIC (Aspergillus niger; YAG medium) [µg/mL] | MIC (A Terreus 49; YAG medium) [µg/mL] | MIC (Aspergillus flavus) [µg/mL] | MIC ([1]; AF210, read-out: MIC A Fum. 210) [µg/mL] | MIC ([2]; AF293, read-out: MIC A Fum. 293) [µg/mL] | MIC (Aspergillus terreus) [µg/mL] | MIC (Aspergillus niger) [µg/mL] | MIC (A Terreus 49) [µg/mL]
1 | O=C(Nc1ccc(N2CCSCC2)cc1)C(=O)c1c(-c2ccccc2)cc2ccccn12 [Example 258, 2-Oxo-2-(2-phenyl-indolizin-3-yl)-N-(4-thiomorpholin-4-yl-phenyl)-acetamide] | 0.015 (≈ 0.034 µM) | 0.015 (≈ 0.034 µM) | 0.03 (≈ 0.0679 µM) | 0.008 (≈ 0.0181 µM) | 0.03 (≈ 0.0679 µM) | 0.008 (≈ 0.0181 µM) | – | – | – | – | – | –
2 | O=C(Nc1ccc(N2CCCC2)cc1)C(=O)c1c(-c2ccccc2)cc2ccccn12 [Example 260, 2-Oxo-2-(2-phenyl-indolizin-3-yl)-N-(4-pyrrolidin-1-yl-phenyl)-acetamide] | 0.008 (≈ 0.0195 µM) | 0.03 (≈ 0.0733 µM) | 0.015 (≈ 0.0366 µM) | 0.008 (≈ 0.0195 µM) | 0.015 (≈ 0.0366 µM) | 0.008 (≈ 0.0195 µM) | – | – | – | – | – | –
3 | CN1CCN(c2ccc(NC(=O)C(=O)c3c(-c4ccccc4)cc4ccccn34)cc2)CC1 [Example 262, N-[4-(4-Methyl-piperazin-1-yl)-phenyl]-2-oxo-2-(2-phenyl-indolizin-3-yl)-acetamide] | 1.6 (≈ 3.65 µM) | 1.6 (≈ 3.65 µM) | 1.6 (≈ 3.65 µM) | 1.6 (≈ 3.65 µM) | 6.25 (≈ 14.3 µM) | 1.6 (≈ 3.65 µM) | – | – | – | – | – | –
4 | CN(Cc1ccccc1)C(=O)c1cccc(NC(=O)C(=O)c2c(-c3ccccc3)cc3ccccn23)c1 [Example 263, N-Benzyl-N-methyl-3-[2-oxo-2-(2-phenyl-indolizin-3-yl)-acetylamino]-benzamide] | 0.05 (≈ 0.103 µM) | 0.4 (≈ 0.82 µM) | 0.4 (≈ 0.82 µM) | 0.2 (≈ 0.41 µM) | 0.8 (≈ 1.64 µM) | 0.1 (≈ 0.205 µM) | – | – | – | – | – | –
5 | CC1(c2ccc(NC(=O)C(=O)c3c(-c4ccccc4)cc4ccccn34)cc2)OCCO1 [Example 264, N-[4-(2-Methyl-[1,3]dioxolan-2-yl)-phenyl]-2-oxo-2-(2-phenyl-indolizin-3-yl)-acetamide] | 0.05 (≈ 0.117 µM) | 0.05 (≈ 0.117 µM) | 0.05 (≈ 0.117 µM) | 0.015 (≈ 0.0352 µM) | 0.05 (≈ 0.117 µM) | 0.008 (≈ 0.0188 µM) | – | – | – | – | – | –
6 | CCN(CC)C(=O)Oc1cccc(NC(=O)C(=O)c2c(-c3ccccc3)cc3ccccn23)c1 [Example 266, Diethyl-carbamic acid 3-[2-oxo-2-(2-phenyl-indolizin-3-yl)-acetylamino]-phenyl ester] | – | – | – | – | – | – | 0.2 (≈ 0.439 µM) | 1.6 (≈ 3.51 µM) | 0.8 (≈ 1.76 µM) | 0.2 (≈ 0.439 µM) | 6.25 (≈ 13.7 µM) | 0.2 (≈ 0.439 µM)

More lines, main results first:

Row | MIC (Aspergillus flavus; YAG medium) [µg/mL] | MIC [1, 3] [µg/mL] | MIC [2, 4] [µg/mL] | MIC (Aspergillus terreus; YAG medium) [µg/mL] | MIC (Aspergillus niger; YAG medium) [µg/mL] | MIC (A Terreus 49; YAG medium) [µg/mL] | Compound | MIC (Aspergillus flavus) [µg/mL] | MIC ([1]; AF210, read-out: MIC A Fum. 210) [µg/mL] | MIC ([2]; AF293, read-out: MIC A Fum. 293) [µg/mL] | MIC (Aspergillus terreus) [µg/mL] | MIC (Aspergillus niger) [µg/mL] | MIC (A Terreus 49) [µg/mL]
7 | 0.2 (≈ 0.52 µM) | 0.8 (≈ 2.08 µM) | 1.6 (≈ 4.16 µM) | 0.2 (≈ 0.52 µM) | 0.4 (≈ 1.04 µM) | 0.1 (≈ 0.26 µM) | CC(O)c1ccc(NC(=O)C(=O)c2c(-c3ccccc3)cc3ccccn23)cc1 (stereo not drawn) [Example 255, N-[4-(1-Hydroxy-ethyl)-phenyl]-2-oxo-2-(2-phenyl-indolizin-3-yl)-acetamide] | – | – | – | – | – | –
8 | 0.04 (≈ 0.102 µM) | 0.015 (≈ 0.0381 µM) | 0.015 (≈ 0.0381 µM) | 0.001 (≈ 0.00254 µM) | 0.03 (≈ 0.0762 µM) | 0.001 (≈ 0.00254 µM) | Cn1ccc2cc(NC(=O)C(=O)c3c(-c4ccccc4)cc4ccccn34)ccc21 [Example 256, N-(1-Methyl-1H-indol-5-yl)-2-oxo-2-(2-phenyl-indolizin-3-yl)-acetamide] | – | – | – | – | – | –
9 | 0.4 (≈ 0.956 µM) | 3.1 (≈ 7.41 µM) | 6.25 (≈ 14.9 µM) | 0.4 (≈ 0.956 µM) | 0.8 (≈ 1.91 µM) | 0.4 (≈ 0.956 µM) | CS(=O)(=O)c1ccc(NC(=O)C(=O)c2c(-c3ccccc3)cc3ccccn23)cc1 [Example 257, N-(4-Methanesulfonyl-phenyl)-2-oxo-2-(2-phenyl-indolizin-3-yl)-acetamide] | – | – | – | – | – | –
10 | 0.015 (≈ 0.0392 µM) | 0.06 (≈ 0.157 µM) | 0.06 (≈ 0.157 µM) | 0.002 (≈ 0.00523 µM) | 0.03 (≈ 0.0784 µM) | 0.004 (≈ 0.0105 µM) | Cc1ccc(NC(=O)C(=O)c2c(-c3ccccc3)cc3ccccn23)c(C)c1C [Example 259, 2-Oxo-2-(2-phenyl-indolizin-3-yl)-N-(2,3,4-trimethyl-phenyl)-acetamide] | – | – | – | – | – | –
11 | 0.004 (≈ 0.0101 µM) | 0.03 (≈ 0.0759 µM) | 0.03 (≈ 0.0759 µM) | 0.004 (≈ 0.0101 µM) | 0.06 (≈ 0.152 µM) | 0.001 (≈ 0.00253 µM) | CN1CCc2cc(NC(=O)C(=O)c3c(-c4ccccc4)cc4ccccn34)ccc21 [Example 261, N-(1-Methyl-2,3-dihydro-1H-indol-5-yl)-2-oxo-2-(2-phenyl-indolizin-3-yl)-acetamide] | – | – | – | – | – | –
12 | 0.1 (≈ 0.243 µM) | > 50 | > 50 | 0.015 (≈ 0.0364 µM) | 0.008 (≈ 0.0194 µM) | 0.06 (≈ 0.146 µM) | O=C(Nc1ccc(F)cc1F)C(=O)c1c(-c2ccc(F)cc2F)cc2ccccn12 [Example 265, N-(2,4-Difluoro-phenyl)-2-[2-(2,4-difluoro-phenyl)-indolizin-3-yl]-2-oxo-acetamide] | – | – | – | – | – | –
13 | 0.05 (≈ 0.131 µM) | 0.8 (≈ 2.09 µM) | 0.4 (≈ 1.05 µM) | 0.1 (≈ 0.261 µM) | 0.4 (≈ 1.05 µM) | 0.05 (≈ 0.131 µM) | CC(=O)c1cccc(NC(=O)C(=O)c2c(-c3ccccc3)cc3ccccn23)c1 [Example 267, N-(3-Acetyl-phenyl)-2-oxo-2-(2-phenyl-indolizin-3-yl)-acetamide] | – | – | – | – | – | –
